SMILES strings stand for the structures.

This assay deals with T1, HA-ERα wild type (Homo sapiens, UniProt P03372).
T1 construct: HA; expressed in transfected cells
T1 sequence (P03372 1-595): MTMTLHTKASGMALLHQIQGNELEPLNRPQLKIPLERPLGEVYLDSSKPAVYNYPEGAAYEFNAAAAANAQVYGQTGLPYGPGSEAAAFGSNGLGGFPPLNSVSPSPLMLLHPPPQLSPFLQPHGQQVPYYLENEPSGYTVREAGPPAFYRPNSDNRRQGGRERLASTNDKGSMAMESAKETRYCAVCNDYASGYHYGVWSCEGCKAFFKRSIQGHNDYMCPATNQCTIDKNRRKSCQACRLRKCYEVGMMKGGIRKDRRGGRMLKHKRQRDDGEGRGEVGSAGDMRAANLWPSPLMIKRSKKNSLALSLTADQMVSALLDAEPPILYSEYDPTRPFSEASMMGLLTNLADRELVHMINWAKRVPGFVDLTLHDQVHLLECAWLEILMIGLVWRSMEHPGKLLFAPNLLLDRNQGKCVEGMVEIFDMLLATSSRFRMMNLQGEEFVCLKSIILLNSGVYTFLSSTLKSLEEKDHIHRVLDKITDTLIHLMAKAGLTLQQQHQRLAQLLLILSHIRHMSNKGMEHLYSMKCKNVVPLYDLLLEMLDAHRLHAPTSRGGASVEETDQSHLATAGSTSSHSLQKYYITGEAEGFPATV
The assay is described as follows: Luciferase assay, overexpressed ER (3×-ERE-TATA-Luciferase reporter). The assay is classed as cell-based. Particulars: compound concentration 1 μM, 24 hours; read-out: Overexpressed ER (% Inhibition) WT. As for the experimental part: Luciferase assays were performed to determine the efficacy of the example compounds at inhibiting ER or its mutants' ability to activate transcription of genes.
Cells were plated at a density of 0.15×10^6 per well of 24 well plates one day prior to transfection. Cells were transfected with 125 ng (per well) of HA-ERα wild type or mutants, 315 ng (per well) of 3×-ERE-TATA-Luciferase reporter and 50 ng (per well) of pRL-TK Renilla Luciferase plasmid, using Xtremegene (Roche). The cells were treated with the various compounds or Fulvestrant at the indicated doses a day after transfection for 24 hours and luciferase activities were determined using the Dual-Luciferase® Reporter Assay System (Promega) according to manufacturer's instructions. Luciferase bioluminescence measurements were performed with the Veritas™ Microplate Luminometer (Promega). All experiments were conducted in triplicate and the Firefly luciferase activity was normalized with the Renilla luciferase activity of each sample.
In the case of `O=C(NCCCCOc1ccc(C(=C2C3CC4CC(C3)CC2C4)c2ccc(O)cc2)cc1)C1CC1(F)F` (centres unmarked) [Example 32, N-(4-(4-(Adamantan-2-ylidene(4-hydroxyphenyl)methyl)phenoxy)butyl)-2,2-difluorocyclopropanecarboxamide], the inhibition at 1 µM was found to be 48%.
For the molecule `O=C(NCCCCOc1ccc(C(=C2C3CC4CC(C3)CC2C4)c2ccc(O)cc2)cc1)C1CC1` [Example 31, N-(4-(4-(Adamantan-2-ylidene(4-hydroxyphenyl)methyl)phenoxy)butyl)cyclopropanecarboxamide], the inhibition at 1 µM turned out to be 36%.
In the case of `O=C(CCC1CCCCC1)NCCCCOc1ccc(Oc2c(-c3ccc(O)cc3)sc3cc(O)ccc23)cc1` [Example 30, 3-Cyclohexyl-N-(4-(4-((6-hydroxy-2-(4-hydroxyphenyl)benzo[b]thiophen-3-yl)oxy)phenoxy)butyl)propanamide], the inhibition at 1 µM stood at 61%.
With `Cc1c(-c2ccc(O)cc2)n(Cc2ccc(OCCCCNC(=O)C34CC5CC(CC(C5)C3)C4)cc2)c2ccc(O)cc12` [Example 21, N-(4-(4-((5-Hydroxy-2-(4-hydroxyphenyl)-3-methyl-1H-indol-1-yl)methyl)phenoxy)butyl)adamantane-1-carboxamide] the figure was 82%; with `O=C(NCCCCOc1ccc(C2c3ccc(O)cc3CCC2c2ccccc2)cc1)[C@H]1CC[C@H](C(F)(F)F)CC1` (stereo partly drawn) [Example 22, (trans)-N-(4-(4-(6-Hydroxy-2-phenyl-1,2,3,4-tetrahydronaphthalen-1-yl)phenoxy)butyl)-4-(trifluoromethyl)cyclohexanecarboxamide], -130%.
Consider `O=C(CCC1CCCCC1)NCCCCOc1ccc(C(=C2C3CC4CC(C3)CC2C4)c2ccc(O)cc2)cc1` [Example 34, N-(4-(4-(Adamantan-2-ylidene(4-hydroxyphenyl)methyl)phenoxy)butyl)-3-cyclohexylpropanamide], for which the inhibition at 1 µM stood at 65%.
With `O=C(NCCCCOc1ccc(C(=C2C3CC4CC(C3)CC2C4)c2ccc(O)cc2)cc1)c1ccc(C(F)(F)F)cc1` [Example 33, N-(4-(4-(Adamantan-2-ylidene(4-hydroxyphenyl)methyl)phenoxy)butyl)-4-(trifluoromethyl)benzamide] the figure was 79%; with `Cc1c(-c2ccc(O)cc2)n(Cc2ccc(OCCCCNC(=O)[C@H]3CC[C@H](C(F)(F)F)CC3)cc2)c2ccc(O)cc12` [Example 20, (trans)-N-(4-(4-((5-Hydroxy-2-(4-hydroxyphenyl)-3-methyl-1H-indol-1-yl)methyl)phenoxy)butyl)-4-(trifluoromethyl)cyclohexanecarboxamide], 83%.

The record behind these values is patent US11667621B2, “Antiestrogen compounds” (STEVENS INSTITUTE OF TECHNOLOGY, priority 2018, dated 2023).
